Data set [1] concerns HL-60 cells. Briefly: MTT assay, metabolic activity (cytotoxicity). The class given is cell-based, human. The settings on record: for IC50: 48 h incubation, MTT, mean ± SEM, read-out: IC50 HL-60. As to the method:
(§1) Metabolic activity by MTT assay
(§2) The MTT (3-([…])-2,5-diphenyl tetrazolium bromide) assay was performed to assess the cytotoxicity of the investigated compounds. Briefly, HL-60, MCF-7 and HUVEC cells were seeded in 24-well plates at density of 8 × 10^4/mL. After 24 h incubation, cells were treated with various concentrations of the compounds and incubated for another 24 h or 48 h. Then, the cells were incubated with MTT solution (100 µL; 5 mg/mL in PBS) for 1.5 h and centrifuged. The formazan product was dissolved in DMSO, and the absorption was measured using FlexStation 3 Multi-Mode Microplate Reader (Molecular Devices, LLC, San Jose, CA, USA) at 560 nm. Assays were performed twice in triplicate for each analog.
(§3) The cytotoxic activity of the obtained methylidenetetrahydropyran-4-ones was investigated in two cancer cell lines, human promyelocytic leukemia (HL-60) and breast cancer adenocarcinoma (MCF-7), and in healthy umbilical vein endothelial cells (HUVEC), for comparison. An anticancer drug, carboplatin, was used as a reference compound. Metabolic activity of the cells was assessed after 48 h incubation with various concentrations of the analogs (Table 6). Purity of all final compounds was determined on the basis of their ^1H NMR spectra (signal-to-noise ratio and presence of unidentified signals) and was at least 98%, in most cases even over 99%.

For data set [2], the system named is MCF-7 cells. Kind of data set: MTT assay, metabolic activity (cytotoxicity). The class given is cell-based, human. Conditions: mean ± SEM. As to the method: as §1, §2, §3
In general terms: Tetrazolium dyes change colour on reduction, which living cells bring about.

The test system of data set [3] is HUVEC cells. Kind of data set: MTT assay, metabolic activity (cytotoxicity), normal cell line. It counts as cell-based, human. Conditions: 48 h incubation, mean ± SEM. As for the experimental part:
as §1, §2, §3

Data set [4] deals with human cancer cell lines, including lymphoid leukemia L1210 and leukemia P388. Also noted: method as in PMID 3693116. The settings on record: cited from earlier work.
In data set [5] the test system is Ehrlich ascites carcinoma. Also noted: method as in PMID 3693116. Conditions: cited from earlier work.
For data set [6], the system named is HL-60 human leukemia cells. Also noted: method as in PMID 32019209. Conditions: cited from earlier work.
Data set [7] in a line: Stability of the compound at room temperature. It counts as physicochemical. As to the method:
Next, we made an attempt to transform the obtained 2-substituted-5-diethoxyphosphoryltetrahydropyran-4-ones 14a-d into target 2-substituted-5-methylidenetetrahydropyran-4-ones 15a-d, using Horner–Wadsworth–Emmons olefination. The reaction was carried out with 2 equivalents of K2CO3, 10 equivalents of formalin, THF as a solvent and room temperature for 3 h. Unfortunately, the obtained 3-methylidenetetrahydropyran-4-ones 15a-c,e, turned out to be unstable at room temperature and decomposed during column chromatography.

For data set [8], the system named is mouse lymphocytic leukemia cells (L1210). Also noted: method as in PMID 18078344. Conditions: cited from earlier work.
Setting [9] is: Homo sapiens, MCF7, 48 h incubation.

Results on 18 molecules are retold here after publication PMC9105583, “Stereoselective Synthesis and Anticancer Activity of 2,6-Disubstituted trans-3-Methylidenetetrahydropyran-4-ones” (Materials, 2022).

By IC50 is commonly meant the concentration needed to halve the response being measured.

Read-outs that look alike come from different tables or passages of the source. Where only a bound is given, the exact number is not on record here.

On to `C=C1C(=O)C[C@H](CC)O[C@H]1C(C)C` (relative stereo) [Analog 13a, Trans-6-ethyl-2-isopropyl-3-methylidenetetrahydro-4H-pyran-4-one], for which the IC50 in data set [1] (Homo sapiens, HL-60, 48 h) is 21.3 ± 1 µM; in data set [2] (setting [9]) it was 20.4 ± 0.35 µM.
On the same counts, the results for `C=C1C(=O)C[C@H](CC)O[C@H]1CCCC` (relative stereo) [Analog 13b, Trans-2-butyl-6-ethyl-3-methylidenetetrahydro-4H-pyran-4-one] are 39.15 ± 0.15 µM and 106.5 ± 0.5 µM.
On the same counts, the results for `C=C1C(=O)C[C@H](CC)O[C@H]1c1ccccc1` (relative stereo) [Analog 13c, Trans-6-ethyl-3-methylidene-2-phenyltetrahydro-4H-pyran-4-one] are 11.8 ± 0.15 µM and 36 ± 0.41 µM.
Turning to `C=C1C(=O)C[C@H](C(C)C)O[C@H]1CCCC` (relative stereo) [Analog 13e, Trans-2-butyl-6-isopropyl-3-methylidenetetrahydro-4H-pyran-4-one], the IC50 in data set [1] (Homo sapiens, HL-60, 48 h) was 78.8 ± 5.25 µM; in data set [2] (setting [9]) it was greater than 150 µM.
Regarding `C=C1C(=O)C[C@H](C(C)C)O[C@H]1c1ccccc1` (relative stereo) [Analog 13f, Trans-6-isopropyl-3-methylidene-2-phenyltetrahydro-4H-pyran-4-one], the IC50 in data set [1] (Homo sapiens, HL-60, 48 h) is 8.45 ± 0.05 µM; in data set [2] (setting [9]), 69.7 ± 2.16 µM; in data set [3] (Homo sapiens, HUVEC), 11.9 ± 2.32 µM.
Regarding `C=C1C(=O)C[C@H](c2ccccc2)O[C@H]1CCCC` (relative stereo) [Analog 13h, Trans-2-buthyl-3-methylidene-6-phenyltetrahydro-4H-pyran-4-one], the IC50 was 134 ± 1 µM in data set [1] and greater than 150 µM in data set [2] (48 h incubation).
For `C=C1C(=O)C[C@H](c2ccccc2)O[C@H]1c1ccccc1` (relative stereo) [Analog 13i, Trans-3-methylidene-2,6-diphenyltetrahydro-4H-pyran-4-one], the concentration for half-maximal inhibition (IC50) in data set [1] (Homo sapiens, HL-60, 48 h) is 36 ± 1.41 µM; in data set [2] (setting [9]), greater than 200 µM.
Take `C=C1C(=O)C[C@H](c2ccc(OC)cc2)O[C@H]1C(C)C` (relative stereo) [Analog 13j, Trans-2-isopropyl-6-(4-methoxyphenyl)-3-methylidenetetrahydro-4H-pyran-4-one]: the IC50 in data set [1] is 3.75 ± 0.07 µM; in data set [1] (Homo sapiens, HL-60, 48 h), less than 4 µM; in data set [2] (setting [9]), 9.11 ± 0.02 µM; in data set [3] (Homo sapiens, HUVEC), 4.25 ± 0.05 µM.
In the case of `C=C1C(=O)C[C@H](c2ccc(OC)cc2)O[C@H]1CCCC` (relative stereo) [Analog 13k, Trans-2-butyl-6-(4-methoxyphenyl)-3-methylidenetetrahydro-4H-pyran-4-one], the IC50 is greater than 100 µM in data set [1] (Homo sapiens, HL-60, 48 h) and greater than 100 µM in data set [2] (setting [9]).
For `C=C1C(=O)C[C@H](c2ccc(OC)cc2)O[C@H]1c1ccccc1` (relative stereo) [Analog 13l, Trans-6-(4-methoxyphenyl)-3-methylidene-2-phenyltetrahydro-4H-pyran-4-one], the IC50 in data set [1] (Homo sapiens, HL-60, 48 h) turned out to be 25 ± 0.94 µM; in data set [2] (setting [9]), 203 ± 56 µM.
On to `C=C1C(=O)C[C@H]([c-]2cccc2)O[C@H]1C(C)C.[Fe+2].c1cc[cH-]c1` (relative stereo) [Analog 13m, Trans-6-ferrocenyl-2-isopropyl-3-methylidenetetrahydro-4H-pyran-4-one], for which the IC50 in data set [1] was determined as 3.87 ± 0.16 µM; in data set [2] (48 h incubation) it was 5.73 ± 0.36 µM.
For `C=C1C(=O)C[C@H]([c-]2cccc2)O[C@H]1c1ccccc1.[Fe+2].c1cc[cH-]c1` (relative stereo) [Analog 13o, Trans-6-ferrocenyl-3-methylidene-2-phenyltetrahydro-4H-pyran-4-one] the same measures were greater than 100 µM and greater than 100 µM.
For `C=C1C(=O)[C@]2(C)C(=O)O[C@@]34C[C@H](C)C(C(=O)O)=C[C@@H]3CCC[C@@H](C)C[C@@H](C)[C@H]1OC24` (single isomer, unassigned; (+)) [(+)-okilactomycin], in data set [4], the “in vitro cytotoxicity” value was “exhibits in vitro cytotoxicity”. Besides, the “in vivo activity” value in data set [5] is “in vivo activity”.
Turning to `C=C1C(=O)CC(C)(C)OC1C(C)C` (stereo not drawn) [6-isopropyl-2,2-dimethyl-5-methylidenetetrahydropyran-4-one], in data set [6], the “apoptosis” value was “induced apoptosis”, the “cell cycle” value is “arrest of the cell cycle in the G2/M phase” and the “cytotoxic activity” value is “very high cytotoxic activity”.
For `C=C1COC(c2ccc(OC)cc2)CC1=O` (stereo not drawn) [Analog 15d, 2-(4-Methoxyphenyl)-5-methylidenetetrahydro-4H-pyran-4-one], the “stable for a prolonged period of time” value in data set [7] is on record as “at least 7 days”. The “cytotoxic activity” value in data set [1] (HL-60 and MCF-7, 48 h) is “practically inactive”. For the same molecule, the half-inhibitory concentration (IC50) in data set [1] (Homo sapiens, HL-60, 48 h) is 163 ± 7.07 µM; in data set [2] (setting [9]) it was greater than 200 µM.
Regarding `N.N.O=C([O-])C1(C(=O)[O-])CCC1.[Pt+2]` [Carboplatin, carboplatin, reference compound], the results for the IC50 in data set [1], in data set [2] (48 h incubation) and in data set [3] were 2.53 ± 0.2 µM, 3.76 ± 0.35 µM and 5.35 ± 0.05 µM, respectively.
In the case of `C[C@H]1CCC/C=C\[C@H]2C=C[C@H](O)[C@H](CC(=O)O1)O2` [aspergillide C], the “cytotoxic activity” value in data set [8] is given as “showed cytotoxic activity”.
In the case of “Trans-2-buthyl-6-ferrocenyl-3-methylidenetetrahydro-4H-pyran-4-one [Analog 13n]”, the IC50 in data set [1] is 62.6 ± 0.61 µM; in data set [2] (48 h incubation) it was greater than 100 µM.
